The values below come from ChEMBL document CHEMBL1811819, “Ethyl malonate amides: a diketo acid offspring fragment for HIV integrase inhibition” (Bioorg Med Chem, 2011).

pIC50: −log10 of the molar value.

The target in the first assay is T1, Human immunodeficiency virus type 1 integrase (Human immunodeficiency virus 1, UniProt Q7ZJM1). Briefly: Inhibition of HIV1 recombinant integrase 3'-processing and strand transfer activity using 21-mer U5B/U5A duplex oligonucleotides after 1 hr.
T1 sequence (Q7ZJM1 whole entry): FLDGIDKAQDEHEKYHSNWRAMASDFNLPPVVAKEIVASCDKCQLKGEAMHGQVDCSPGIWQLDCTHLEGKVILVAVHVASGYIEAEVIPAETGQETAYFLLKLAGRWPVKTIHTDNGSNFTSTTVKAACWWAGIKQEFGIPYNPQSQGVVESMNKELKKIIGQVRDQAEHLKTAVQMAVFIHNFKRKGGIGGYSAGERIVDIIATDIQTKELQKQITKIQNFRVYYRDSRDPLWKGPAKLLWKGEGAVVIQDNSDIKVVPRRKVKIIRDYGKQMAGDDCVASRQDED
Conditions: not given; call rule not given here
`CCOC(=O)CC(=O)Nc1ccc(C)cc1[N+](=O)[O-]`: the IC50 result is listed as “Not Active”.
Same read-out and setting: as for `CCOC(=O)CC(=O)Nc1ccccc1[N+](=O)[O-]`, the entry is “Not Active”.

The assay is the same for the next values; noted with them: read-out: IC50.
Broadly, the pIC50 is the negative decadic logarithm of the IC50, by convention in mol/L. As for `CCOC(=O)CC(=O)Nc1ccc(C)cc1`, the pIC50 is 4.30.
On to `CCOC(=O)CC(=O)Nc1ccc(C(=O)O)cc1`, for which the pIC50 is 5.70.
In the case of `CCOC(=O)CC(=O)Nc1ccc2cccc(O)c2n1`, the pIC50 was 4.38.
The same measure, in the same setting: in the case of `CCOC(=O)CC(=O)NCc1ccc(F)cc1` it was below 4.00.
Take `Cc1ccc(NC(=O)CC(=O)O)c([N+](=O)[O-])c1`: the pIC50 was below 4.00.
On to `CCOC(=O)CC(=O)Nc1cc(C(=O)O)ccc1O`, for which the negative-log IC50 (pIC50) is below 3.52.
The same measure, in the same setting: in the case of `CCOC(=O)CC(=O)Nc1c(Cl)cccc1Cl` it was below 4.00.
Same read-out and setting: in the case of `CCOC(=O)CC(=O)NS(=O)(=O)c1ccc(C)cc1` it was 3.30.

In the next assay the target is T1, Human immunodeficiency virus type 1 integrase. In words: Inhibition of HIV1 integrase.
Conditions: not given
For `Cc1ccc2c(O)c(C(=O)O)ccc2n1`, the pIC50 was 4.33.
The compound `Cc1ccc2ccc(C(=O)O)c(O)c2n1` had a pIC50 below 4.00.
